Measured values: patent US6514997B2, “Antipicornaviral compounds and compositions, their pharmaceutical uses, and materials for their synthesis” (Agouron Pharmaceuticals, Inc., priority 1999, dated 2003)

Tests used:
HRV-14 = assay: Antirhinoviral H1-HeLa cell culture assay (XTT cell protection, EC50), HRV-14; type: cell-based, human rhinovirus (HRV) serotype-14 in H1-HeLa cells; conditions: Rhinovirus B, HRV14, H1-HeLa
Outline: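 XTT dye reduction (450/650 nm) measured survival of H1-HeLa cells two days after HRV-14 infection at m.o.i. 0.13 in the presence of compound, giving EC50. The therapeutic index is CC50 divided by EC50.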

[1] = Cytotoxicity (CC50) in mock-infected H1-HeLa cells, XTT dye reduction; type: cell-based, human; conditions: human, H1-HeLa cells
Outline: (§1)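 XTT dye reduction (formazan, 450/650 nm) in H1-HeLa cells, mock-infected, gave CC50.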

H1-HeLa cells = assay: as above; type: cell-based, human
Outline: as §1

[2] = test system: Echovirus type 11 (ECHO 11); assay: Anti-echoviral cell culture assay (XTT, EC50), ECHO 11; type: cell-based, echovirus 11 in MRC-5 cells; conditions: Enterovirus B
Outline: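 MRC-5 cells (1×10^4/well) infected with ECHO 11 at m.o.i. 0.003 or 0.004, or mock-infected, and incubated with compound for four days. Cell protection read by XTT formazan absorbance at 450/650 nm; EV 70 tested by the same method.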

MRC-5 cells = assay: Cytotoxicity (CC50) in uninfected MRC-5 cells, XTT dye reduction; type: cell-based, human
Outline: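 MRC-5 cells in MEM with 10% FBS, infected at m.o.i. 0.003 or 0.004 or mock-infected, seeded 1×10^4 cells/well with compound for four days. Protection and cytotoxicity read by XTT/PMS formazan at 450/650 nm. TI = CC50/EC50.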

echovirus 6 (ECHO-6) = assay: Anti-echoviral cell culture assay (EC50), ECHO-6; type: cell-based; conditions: Enterovirus B

C#CC[C@@H](C(=O)N[C@H](/C=C/C(=O)OC(C)(C)C)C[C@@H]1CCNC1=O)n1cccc(NC(=O)c2cc(C)on2)c1=O [Compound 41, trans-(2′S,3′″″S,4S)-4-[2′-(3″-{[1′″-(5″″-Methylisoxazol-3″″-yl)methanoyl]amino}-2′″-oxo-2′″H-pyridin-1′″-yl)pent-4″-ynoylamino]-5-(2′″″-oxopyrrolidin-3′″″-yl)pent-2-enoic Acid tert-Butyl Ester] gave an EC50 (HRV-14) of 0.062 µM, a CC50 at 2 days ([1]; mock-infected, line of HRV-14) greater than 10 µM and a CC50 at 2 days ([1]; uninfected (mock-infected), line of CAV-21) greater than 10 µM. The CC50 ([1]; uninfected (mock-infected), line of CVB2) was greater than 10 µM, the CC50 at 1 day ([1]; uninfected (mock-infected), line of CVB3) was greater than 10 µM and the CC50 (H1-HeLa cells; line of CVB5) was greater than 10 µM. It also gave a CC50 (H1-HeLa cells; line of HRV-2) greater than 10 µM, a CC50 (H1-HeLa cells; line of HRV-3) greater than 10 µM and a CC50 (H1-HeLa cells; line of HRV-9) greater than 10 µM. For the same compound, the CC50 (H1-HeLa cells; line of HRV-16) was greater than 10 µM, the CC50 (H1-HeLa cells; line of HRV-25) was greater than 10 µM and the CC50 (H1-HeLa cells; line of HRV-39) was greater than 10 µM. For the same compound, the CC50 (H1-HeLa cells; line of HRV-87) was greater than 10 µM, the EC50 [2] was 0.186 µM and the CC50 (MRC-5 cells; line of ECHO-6) was greater than 10 µM. For the same compound, the CC50 (MRC-5 cells; line of ECHO-9) was greater than 10 µM, the melting point was 195 °C (dec.) and the EC50 (echovirus 6 (ECHO-6)) was 0.147 µM.
